# Tests used:
# Test in all cases: KINOMEscan competition binding
# Settings in all cases: compound 10.0 µM
# PIK3CB (human) = PIK3CB (human) (UniProt P42338)
# PTK2B (human) = PTK2B (human) (UniProt Q14289)
# PRKD2 (human) = PRKD2 (human) (UniProt Q9BZL6)
# MAPK3 (human) = MAPK3 (human) (UniProt P27361)
# [1] = test system: ABL1 (human), P00519 [Y253F]
# CDK19 (human) = CDK19 (human) (UniProt Q9BWU1)
# PRKD1 (human) = PRKD1 (human) (UniProt Q15139)
# EPHB1 (human) = EPHB1 (human) (UniProt P54762)
# AKT1 (human) = AKT1 (human) (UniProt P31749)
# RIOK1 (human) = RIOK1 (human) (UniProt Q9BRS2)
# NEK11 (human) = NEK11 (human) (UniProt Q8NG66)
# CSNK1G2 (human) = CSNK1G2 (human) (UniProt P78368)
# DYRK2 (human) = DYRK2 (human) (UniProt Q92630)
# CLK2 (human) = CLK2 (human) (UniProt P49760)
# MAP3K15 (human) = MAP3K15 (human) (UniProt Q6ZN16)
# IKBKE (human) = IKBKE (human) (UniProt Q14164)
# PRKCE (human) = PRKCE (human) (UniProt Q02156)
# MYLK4 (human) = MYLK4 (human) (UniProt Q86YV6)
# MST1R (human) = MST1R (human) (UniProt Q04912)
# TEC (human) = TEC (human) (UniProt P42680)
# CDK8 (human) = CDK8 (human) (UniProt P49336)
# TRPM6 (human) = TRPM6 (human) (UniProt Q9BX84)
# IGF1R (human) = IGF1R (human) (UniProt P08069)
# PI4KB (human) = PI4KB (human) (UniProt Q9UBF8)
# CDK5 (human) = CDK5 (human) (UniProt Q00535)
# NEK9 (human) = NEK9 (human) (UniProt Q8TD19)
# CAMK2D (human) = CAMK2D (human) (UniProt Q13557)
# HUNK (human) = HUNK (human) (UniProt P57058)
# STK36 (human) = STK36 (human) (UniProt Q9NRP7)
# PRKCD (human) = PRKCD (human) (UniProt Q05655)
# CDK2 (human) = CDK2 (human) (UniProt P24941)
# CDK9 (human) = CDK9 (human) (UniProt P50750)
# AAK1 (human) = AAK1 (human) (UniProt Q2M2I8)
# MARK4 (human) = MARK4 (human) (UniProt Q96L34)
# MAP3K12 (human) = MAP3K12 (human) (UniProt Q12852)
# BMPR2 (human) = BMPR2 (human) (UniProt Q13873)
# PRKG2 (human) = PRKG2 (human) (UniProt Q13237)
# ULK1 (human) = ULK1 (human) (UniProt O75385)
# RAF1 (human) = RAF1 (human) (UniProt P04049)
# GSK3B (human) = GSK3B (human) (UniProt P49841)
# Chain of GSK3B (human) (P49841 whole entry, looked up): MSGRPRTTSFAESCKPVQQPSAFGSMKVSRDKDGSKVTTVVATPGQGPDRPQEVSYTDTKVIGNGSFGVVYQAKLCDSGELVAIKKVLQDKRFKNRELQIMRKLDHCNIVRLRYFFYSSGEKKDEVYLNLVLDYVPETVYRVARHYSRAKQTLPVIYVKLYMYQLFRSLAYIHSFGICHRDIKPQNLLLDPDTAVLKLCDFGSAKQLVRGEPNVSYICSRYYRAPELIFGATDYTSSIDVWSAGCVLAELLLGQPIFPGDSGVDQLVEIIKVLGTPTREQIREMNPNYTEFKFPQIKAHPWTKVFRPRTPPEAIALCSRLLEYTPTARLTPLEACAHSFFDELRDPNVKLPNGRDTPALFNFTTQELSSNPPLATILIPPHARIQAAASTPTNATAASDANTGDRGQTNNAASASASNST
# Chain of TRPM6 (human) (Q9BX84 whole entry, looked up): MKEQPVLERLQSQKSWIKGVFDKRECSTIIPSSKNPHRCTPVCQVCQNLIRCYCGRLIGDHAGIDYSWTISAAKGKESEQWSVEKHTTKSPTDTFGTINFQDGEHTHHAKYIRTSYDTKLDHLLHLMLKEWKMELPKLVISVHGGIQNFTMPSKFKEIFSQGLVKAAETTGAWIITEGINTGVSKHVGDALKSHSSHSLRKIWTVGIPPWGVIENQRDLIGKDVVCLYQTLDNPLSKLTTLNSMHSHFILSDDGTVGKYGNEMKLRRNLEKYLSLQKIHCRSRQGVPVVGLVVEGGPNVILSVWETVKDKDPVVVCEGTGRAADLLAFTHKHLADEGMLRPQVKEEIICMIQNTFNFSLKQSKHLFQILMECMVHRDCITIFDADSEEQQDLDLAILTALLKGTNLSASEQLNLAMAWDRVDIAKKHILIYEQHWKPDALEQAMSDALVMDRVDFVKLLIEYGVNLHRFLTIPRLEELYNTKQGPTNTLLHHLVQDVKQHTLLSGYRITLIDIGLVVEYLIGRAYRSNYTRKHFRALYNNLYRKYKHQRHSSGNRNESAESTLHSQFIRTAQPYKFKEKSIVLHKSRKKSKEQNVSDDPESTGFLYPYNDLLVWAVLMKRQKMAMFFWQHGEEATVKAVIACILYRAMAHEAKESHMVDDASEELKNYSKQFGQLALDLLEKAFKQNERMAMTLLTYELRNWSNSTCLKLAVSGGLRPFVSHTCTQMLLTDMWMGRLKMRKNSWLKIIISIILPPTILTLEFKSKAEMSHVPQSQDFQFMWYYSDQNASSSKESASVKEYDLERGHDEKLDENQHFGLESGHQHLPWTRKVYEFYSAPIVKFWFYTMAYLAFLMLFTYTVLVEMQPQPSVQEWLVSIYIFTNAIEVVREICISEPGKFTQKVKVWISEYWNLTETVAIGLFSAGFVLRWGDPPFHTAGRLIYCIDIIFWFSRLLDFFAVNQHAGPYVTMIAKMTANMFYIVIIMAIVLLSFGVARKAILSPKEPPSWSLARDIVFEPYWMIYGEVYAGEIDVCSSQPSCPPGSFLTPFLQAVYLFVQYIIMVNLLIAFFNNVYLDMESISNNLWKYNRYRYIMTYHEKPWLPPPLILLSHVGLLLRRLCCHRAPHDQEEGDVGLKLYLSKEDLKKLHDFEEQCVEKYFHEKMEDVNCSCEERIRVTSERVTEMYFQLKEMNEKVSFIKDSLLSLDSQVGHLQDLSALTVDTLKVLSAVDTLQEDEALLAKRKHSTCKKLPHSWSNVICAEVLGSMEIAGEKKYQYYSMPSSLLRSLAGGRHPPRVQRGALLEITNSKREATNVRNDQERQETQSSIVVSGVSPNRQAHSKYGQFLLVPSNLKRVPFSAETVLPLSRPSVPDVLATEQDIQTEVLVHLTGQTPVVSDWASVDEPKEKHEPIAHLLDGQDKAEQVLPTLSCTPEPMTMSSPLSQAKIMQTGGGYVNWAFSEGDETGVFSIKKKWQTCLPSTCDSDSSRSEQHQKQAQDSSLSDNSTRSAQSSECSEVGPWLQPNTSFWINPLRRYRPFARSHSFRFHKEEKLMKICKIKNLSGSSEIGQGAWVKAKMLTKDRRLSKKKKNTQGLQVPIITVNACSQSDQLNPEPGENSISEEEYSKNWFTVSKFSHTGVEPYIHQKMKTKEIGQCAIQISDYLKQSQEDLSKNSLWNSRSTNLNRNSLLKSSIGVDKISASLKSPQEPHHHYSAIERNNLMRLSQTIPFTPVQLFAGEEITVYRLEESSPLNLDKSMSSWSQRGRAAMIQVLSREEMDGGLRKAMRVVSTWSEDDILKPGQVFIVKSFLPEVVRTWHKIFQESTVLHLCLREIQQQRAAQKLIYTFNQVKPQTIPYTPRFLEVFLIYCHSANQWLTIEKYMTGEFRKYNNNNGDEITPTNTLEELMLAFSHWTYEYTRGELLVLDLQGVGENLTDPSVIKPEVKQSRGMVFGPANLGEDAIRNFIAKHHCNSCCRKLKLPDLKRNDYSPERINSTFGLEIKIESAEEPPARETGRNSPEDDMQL
# Chain of PIK3CB (human) (P42338 whole entry, looked up): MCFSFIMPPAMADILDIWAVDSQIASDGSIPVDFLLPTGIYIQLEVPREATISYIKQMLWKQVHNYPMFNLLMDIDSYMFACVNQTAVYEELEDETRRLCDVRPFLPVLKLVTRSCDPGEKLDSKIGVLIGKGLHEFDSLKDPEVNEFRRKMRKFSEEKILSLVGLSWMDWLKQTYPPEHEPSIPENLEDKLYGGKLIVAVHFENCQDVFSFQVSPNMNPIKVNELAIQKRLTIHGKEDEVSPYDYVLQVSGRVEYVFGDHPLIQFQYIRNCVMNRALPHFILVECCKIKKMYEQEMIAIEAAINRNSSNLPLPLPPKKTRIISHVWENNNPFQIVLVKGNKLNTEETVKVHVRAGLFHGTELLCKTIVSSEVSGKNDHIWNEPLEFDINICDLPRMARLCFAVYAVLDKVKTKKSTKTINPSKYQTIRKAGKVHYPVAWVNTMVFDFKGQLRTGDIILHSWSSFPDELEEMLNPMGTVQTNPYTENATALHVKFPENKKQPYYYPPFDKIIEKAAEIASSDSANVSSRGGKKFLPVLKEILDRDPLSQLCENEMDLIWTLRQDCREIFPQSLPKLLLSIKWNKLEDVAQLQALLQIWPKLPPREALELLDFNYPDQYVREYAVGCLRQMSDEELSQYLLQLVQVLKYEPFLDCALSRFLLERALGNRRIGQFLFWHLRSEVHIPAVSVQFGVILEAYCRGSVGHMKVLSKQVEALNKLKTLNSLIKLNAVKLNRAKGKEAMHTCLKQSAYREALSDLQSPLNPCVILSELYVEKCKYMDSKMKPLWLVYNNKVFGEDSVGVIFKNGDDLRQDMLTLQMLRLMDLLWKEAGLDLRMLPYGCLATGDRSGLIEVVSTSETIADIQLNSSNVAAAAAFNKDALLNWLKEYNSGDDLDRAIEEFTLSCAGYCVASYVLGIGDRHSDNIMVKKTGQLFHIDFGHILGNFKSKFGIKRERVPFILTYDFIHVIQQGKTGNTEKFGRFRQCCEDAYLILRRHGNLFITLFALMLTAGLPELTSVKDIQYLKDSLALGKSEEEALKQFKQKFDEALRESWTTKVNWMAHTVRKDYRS
# Chain of PRKG2 (human) (Q13237 whole entry, looked up): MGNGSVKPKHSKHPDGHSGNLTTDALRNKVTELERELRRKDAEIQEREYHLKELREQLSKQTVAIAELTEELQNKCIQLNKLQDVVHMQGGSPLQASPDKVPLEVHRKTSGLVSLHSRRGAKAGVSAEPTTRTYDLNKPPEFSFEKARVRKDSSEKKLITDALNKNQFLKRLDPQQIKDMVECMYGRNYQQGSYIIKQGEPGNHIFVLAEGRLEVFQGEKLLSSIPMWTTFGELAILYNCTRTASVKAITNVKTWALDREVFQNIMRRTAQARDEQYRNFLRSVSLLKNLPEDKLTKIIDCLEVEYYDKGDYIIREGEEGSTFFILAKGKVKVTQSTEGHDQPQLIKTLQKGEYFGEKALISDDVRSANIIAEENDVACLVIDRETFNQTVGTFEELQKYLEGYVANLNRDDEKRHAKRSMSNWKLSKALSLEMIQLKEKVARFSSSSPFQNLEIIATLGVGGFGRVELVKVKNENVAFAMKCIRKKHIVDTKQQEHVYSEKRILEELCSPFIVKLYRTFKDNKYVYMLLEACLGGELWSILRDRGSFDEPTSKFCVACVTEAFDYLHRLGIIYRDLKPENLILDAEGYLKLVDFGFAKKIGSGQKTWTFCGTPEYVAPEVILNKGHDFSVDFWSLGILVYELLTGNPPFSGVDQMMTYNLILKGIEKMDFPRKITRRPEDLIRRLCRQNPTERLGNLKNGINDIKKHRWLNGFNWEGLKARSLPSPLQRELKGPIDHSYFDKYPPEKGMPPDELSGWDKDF
# Chain of MYLK4 (human) (Q86YV6 whole entry, looked up): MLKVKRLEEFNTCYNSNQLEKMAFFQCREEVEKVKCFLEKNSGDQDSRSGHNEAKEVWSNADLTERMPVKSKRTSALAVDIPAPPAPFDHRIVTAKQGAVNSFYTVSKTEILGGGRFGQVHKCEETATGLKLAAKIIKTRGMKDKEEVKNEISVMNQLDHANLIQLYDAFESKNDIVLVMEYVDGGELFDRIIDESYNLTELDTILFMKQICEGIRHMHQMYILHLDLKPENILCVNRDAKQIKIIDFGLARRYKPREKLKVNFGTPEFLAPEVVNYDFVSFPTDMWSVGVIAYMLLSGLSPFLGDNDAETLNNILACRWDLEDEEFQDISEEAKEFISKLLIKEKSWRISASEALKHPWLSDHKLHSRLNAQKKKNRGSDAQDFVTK
# Chain of MAPK3 (human) (P27361 whole entry, looked up): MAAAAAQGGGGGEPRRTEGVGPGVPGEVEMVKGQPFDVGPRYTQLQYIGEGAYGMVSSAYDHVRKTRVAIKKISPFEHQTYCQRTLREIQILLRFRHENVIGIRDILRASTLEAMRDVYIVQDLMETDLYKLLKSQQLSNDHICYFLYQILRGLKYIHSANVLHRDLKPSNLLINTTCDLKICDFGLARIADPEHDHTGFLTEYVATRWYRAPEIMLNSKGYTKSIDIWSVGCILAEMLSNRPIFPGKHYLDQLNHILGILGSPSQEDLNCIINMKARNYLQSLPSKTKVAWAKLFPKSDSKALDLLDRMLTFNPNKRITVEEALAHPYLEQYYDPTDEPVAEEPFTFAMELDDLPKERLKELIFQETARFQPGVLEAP
Structure (SMILES),"kinase still bound, per cent of control (PIK3CB (human))","kinase still bound, per cent of control (PTK2B (human))","kinase still bound, per cent of control (PRKD2 (human))","kinase still bound, per cent of control (MAPK3 (human))","kinase still bound, per cent of control [1]","kinase still bound, per cent of control (CDK19 (human))","kinase still bound, per cent of control (PRKD1 (human))","kinase still bound, per cent of control (EPHB1 (human))","kinase still bound, per cent of control (AKT1 (human))","kinase still bound, per cent of control (RIOK1 (human))","kinase still bound, per cent of control (NEK11 (human))","kinase still bound, per cent of control (CSNK1G2 (human))","kinase still bound, per cent of control (DYRK2 (human))","kinase still bound, per cent of control (CLK2 (human))","kinase still bound, per cent of control (MAP3K15 (human))","kinase still bound, per cent of control (IKBKE (human))","kinase still bound, per cent of control (PRKCE (human))","kinase still bound, per cent of control (MYLK4 (human))","kinase still bound, per cent of control (MST1R (human))","kinase still bound, per cent of control (TEC (human))",also measured
O=C1NC(=O)/C(=C/c2ccc3nccc(-c4ccncc4)c3c2)S1,7.1%,86%,90%,100%,68%,4.2%,89%,90%,90%,1%,72%,0.05%,5.4%,0.15%,100%,45%,38%,2.2%,100%,73%,"kinase still bound, per cent of control (CDK8 (human)): 7.3%; kinase still bound, per cent of control (TRPM6 (human)): 97%; kinase still bound, per cent of control (IGF1R (human)): 100%; kinase still bound, per cent of control (PI4KB (human)): 0.4%; kinase still bound, per cent of control (CDK5 (human)): 82%; kinase still bound, per cent of control (NEK9 (human)): 95%; kinase still bound, per cent of control (CAMK2D (human)): 10%; kinase still bound, per cent of control (HUNK (human)): 59%; kinase still bound, per cent of control (STK36 (human)): 89%; kinase still bound, per cent of control (PRKCD (human)): 20%; kinase still bound, per cent of control (CDK2 (human)): 76%; kinase still bound, per cent of control (CDK9 (human)): 16%; kinase still bound, per cent of control (AAK1 (human)): 1%; kinase still bound, per cent of control (MARK4 (human)): 89%; kinase still bound, per cent of control (MAP3K12 (human)): 96%; kinase still bound, per cent of control (BMPR2 (human)): 100%; kinase still bound, per cent of control (PRKG2 (human)): 56%; kinase still bound, per cent of control (ULK1 (human)): 74%; kinase still bound, per cent of control (RAF1 (human)): 47%; kinase still bound, per cent of control (GSK3B (human)): 66%"
COc1cc2ncnc(-n3nc(-c4ccccn4)nc3N)c2cc1OC,5%,75%,65%,67%,0.3%,100%,88%,32%,100%,29%,80%,1.1%,0.25%,1.8%,54%,9.6%,65%,25%,100%,100%,"kinase still bound, per cent of control (CDK8 (human)): 100%; kinase still bound, per cent of control (TRPM6 (human)): 61%; kinase still bound, per cent of control (IGF1R (human)): 100%; kinase still bound, per cent of control (PI4KB (human)): 9.8%; kinase still bound, per cent of control (CDK5 (human)): 100%; kinase still bound, per cent of control (NEK9 (human)): 2.2%; kinase still bound, per cent of control (CAMK2D (human)): 55%; kinase still bound, per cent of control (HUNK (human)): 41%; kinase still bound, per cent of control (STK36 (human)): 7.4%; kinase still bound, per cent of control (PRKCD (human)): 76%; kinase still bound, per cent of control (CDK2 (human)): 50%; kinase still bound, per cent of control (CDK9 (human)): 76%; kinase still bound, per cent of control (AAK1 (human)): 6.9%; kinase still bound, per cent of control (MARK4 (human)): 75%; kinase still bound, per cent of control (MAP3K12 (human)): 52%; kinase still bound, per cent of control (BMPR2 (human)): 88%; kinase still bound, per cent of control (PRKG2 (human)): 75%; kinase still bound, per cent of control (ULK1 (human)): 6.6%; kinase still bound, per cent of control (RAF1 (human)): 59%; kinase still bound, per cent of control (GSK3B (human)): 100%"
COc1cc(C(=O)N2CCC(N3CCN(C)CC3)CC2)ccc1Nc1ncc2c(n1)N(C)c1ccccc1C(=O)N2C,96%,78%,59%,100%,89%,100%,28%,98%,79%,100%,100%,100%,76%,72%,69%,96%,100%,80%,98%,100%,"kinase still bound, per cent of control (CDK8 (human)): 100%; kinase still bound, per cent of control (TRPM6 (human)): 100%; kinase still bound, per cent of control (IGF1R (human)): 96%; kinase still bound, per cent of control (PI4KB (human)): 95%; kinase still bound, per cent of control (CDK5 (human)): 81%; kinase still bound, per cent of control (NEK9 (human)): 100%; kinase still bound, per cent of control (CAMK2D (human)): 28%; kinase still bound, per cent of control (HUNK (human)): 100%; kinase still bound, per cent of control (STK36 (human)): 97%; kinase still bound, per cent of control (PRKCD (human)): 75%; kinase still bound, per cent of control (CDK2 (human)): 100%; kinase still bound, per cent of control (CDK9 (human)): 100%; kinase still bound, per cent of control (AAK1 (human)): 84%; kinase still bound, per cent of control (MARK4 (human)): 78%; kinase still bound, per cent of control (MAP3K12 (human)): 81%; kinase still bound, per cent of control (BMPR2 (human)): 87%; kinase still bound, per cent of control (PRKG2 (human)): 74%; kinase still bound, per cent of control (ULK1 (human)): 80%; kinase still bound, per cent of control (RAF1 (human)): 100%; kinase still bound, per cent of control (GSK3B (human)): 88%"

# — the kinase profiling compilation of Christmann-Franck et al. (2016)
